Biological target: Sodium-dependent dopamine transporter (Rattus norvegicus, UniProt P23977)
Experiment: Concentration required to inhibit 50% of radioligand binding ([3H]WIN-35428) to the dopamine (DA) transporter in rat

Sodium-dependent dopamine transporter, sequence (P23977 whole entry): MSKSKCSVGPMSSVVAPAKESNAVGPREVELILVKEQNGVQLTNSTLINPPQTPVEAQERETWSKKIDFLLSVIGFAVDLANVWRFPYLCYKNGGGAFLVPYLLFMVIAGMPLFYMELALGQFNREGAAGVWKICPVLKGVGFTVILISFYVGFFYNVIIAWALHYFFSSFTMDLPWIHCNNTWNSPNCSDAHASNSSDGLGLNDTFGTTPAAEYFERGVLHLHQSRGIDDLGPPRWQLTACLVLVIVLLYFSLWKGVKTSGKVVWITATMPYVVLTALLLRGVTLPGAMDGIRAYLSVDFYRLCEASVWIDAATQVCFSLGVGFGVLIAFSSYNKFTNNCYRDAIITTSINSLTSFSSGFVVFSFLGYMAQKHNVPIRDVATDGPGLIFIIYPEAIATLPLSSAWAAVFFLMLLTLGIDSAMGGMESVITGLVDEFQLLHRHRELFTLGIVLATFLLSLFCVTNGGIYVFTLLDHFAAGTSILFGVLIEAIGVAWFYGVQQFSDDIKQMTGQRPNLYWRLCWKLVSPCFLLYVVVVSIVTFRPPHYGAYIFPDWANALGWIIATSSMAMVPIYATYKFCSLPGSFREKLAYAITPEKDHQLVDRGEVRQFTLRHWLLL

**Q.** How did the IC50 turn out when `COC(=O)C1C2CCC(C[C@@H]1c1cc[c]([Sn]([CH3])([CH3])[CH3])cc1)N2C` (stereo partly drawn) [(3S,8R)-8-Methyl-3-(4-trimethylstannanyl-phenyl)-8-aza-bicyclo[3.2.1]octane-2-carboxylic acid methyl ester] was run?
**A.** Its IC50 is 144 nM.
